Values quoted from earlier work as cited in US8073633B2 (The Invention Science Fund I, LLC, priority 2008, dated 2011).

Tests used:
[1] = in vivo
[2] = given with grapefruit juice as compared to water
[3] = coadministered itraconazole relative to placebo

Compound | innate oral bioavailability [1] | percentage change in Cmax values [2] | change of area under the serum concentration-time curve [AUC (0-infinity)] [3] | change of peak serum concentration (Cmax) [3] | also measured
COC(=O)C1=C(C)NC(C)=C(C(=O)OCC(C)C)C1c1ccccc1[N+](=O)[O-] (stereo not drawn) [nisoldipine] | very low | 409% |  |  | 
CCOC(=O)C1=C(COCCN)NC(C)=C(C(=O)OC)C1c1ccccc1Cl (stereo not drawn) [amlodipine] | very high | 115% |  |  | 
CCC(C)(C)C(=O)O[C@H]1C[C@@H](C)C=C2C=C[C@H](C)[C@H](CC[C@@H](O)C[C@@H](O)CC(=O)O)[C@H]21 [simvastatin acid] |  |  | at least tenfold | at least tenfold | 
O=P1(N(CCCl)CCCl)NCCCO1 (stereo not drawn) [cyclophosphamide] |  |  |  |  | relative risk for ovarian failure (lupus nephritis patients homozygous or heterozygous for CYP2C19*2, pulse cyclophosphamide therapy): 0.10; probability of progressing to end stage renal disease (patients homozygous for CYP2B6*5 or CYP2C19*2 (P=0.0005)): higher probability; probability of achieving a complete renal response (patients homozygous for CYP2B6*5 or CYP2C19*2 (P=0.051)): lower probability
CC[C@H](C)C(=O)O[C@H]1C[C@H](O)C=C2C=C[C@H](C)[C@H](CC[C@@H](O)C[C@@H](O)CC(=O)O)[C@H]21 [pravastatin] |  |  | slightly increased | slightly increased | plasma half-life [3]: not altered
